Reference: PMC10045483, “Comparative Pharmacokinetic Study of 5 Active Ingredients after Oral Administration of Zuogui Pill in Osteoporotic Rats with Different Syndrome Types” (International Journal of Analytical Chemistry, 2023)
Like-named read-outs stand apart in the source and are kept apart here. Blank lines part the entries; values can stand above or below the molecule they belong to.

What was measured:
[1] = Pharmacokinetic study of 5 compounds in rat plasma after oral administration of Zuogui Pill extract (HPLC-MS/MS, noncompartmental analysis); type: in vivo, Female Sprague-Dawley rats; conditions: oral Zuogui Pill extract 1.5 mL/100 g; for Cmax / Tmax / half-life / CL/F / MRT last / MRT inf: female, Sprague-Dawley, rat, po, 1.5 mL/100 g; for Cmax / Tmax / half-life / AUC0–t / AUC0–∞ / t 1/2: n = 6; for CL/F: n = 6, read-out: CL_F_obs (converted); for MRT last: n = 6, read-out: MRT0–t; for MRT inf: n = 6, read-out: MRT0–∞
Method: Female Sprague-Dawley rats (180–220 g) were purchased from Shanghai Laboratory Animal Centre (Shanghai, China). The rats were maintained in a standard environment (22 ± 1°C, 60 ± 10% relative humidity, and a 12 h light/dark cycle) for one week to acclimate and fed water and food ad libitum. Twenty-four rats were divided randomly into […] and treated through ovary enucleation to establish the model of osteoporosis. Ten weeks after operation, osteoporosis models of kidney-yang-deficiency and kidney-yin-deficiency were established by intramuscular injection of hydrocortisone (25 mg/kg) and intragastric administration of thyroxine suspension (160 mg/kg) for 10 days, respectively. The femur of two rats from each group was then stained with hematoxylin and eosin (H&E) to assess histopathological change. Also, the validation of osteoporosis kidney-yang-deficiency and kidney-yin-deficiency models was judged by detecting the level of cyclic adenosine monophosphate (cAMP) and cyclic guanosine monophosphate (cGMP) in rat plasma. Laboratory Animal Management and Ethics Committee of Zhejiang Chinese Medical University approved all animal treatments (ZSLL-2014-48).
One hundred microliters of plasma was mixed with 100 μL of the IS solution, followed by 700 μL of methanol:acetonitrile (1 : 1). After 2 min of vortex mixing, the mixture was spun for 15 min at 8000 rpm and 4°C. The supernatants were collected and dried in a high-purity N2 environment. The residues were redissolved in 100 μL methanol and centrifuged for 15 min at 13000 rpm and 4°C. Finally, an aliquot of 10 μL supernatants was used to conduct the analysis.
Four groups of rats were orally administered with Zuogui Pill extract at a dose of 1.5 mL/100 g. Then, 0.3 mL blood samples were collected from orbital veins at 0, 0.08, 0.17, 0.25, 0.5, 1, 2, 4, 6, 8, 12, and 24 h after administration, placed in an anticoagulant tube, and centrifuged for 15 min at 5000 rpm and 4°C. The plasma was prepared and stored at −20°C until analysis.
Phoenix WinNonlin 6.4 software was used to estimate pharmacokinetic parameters using noncompartmental analysis. Furthermore, SPSS 26 software was used to compute comparisons of the pharmacokinetic data among the four groups according to a one-way ANOVA. The results are presented as mean ± SD.

[2] = Stability of analytes in rat plasma (QC samples) under storage conditions; conditions: n = 5; for Stability, Room temperature for 4 h, Mean: 25°C; for Stability, Three freeze-thaw cycles, Mean: −20°C to 25°C
Method: QC samples at three levels using five replicates were used to evaluate the stability under the following conditions: 4 h at room temperature (25°C), 24 h in autosampler (4°C), and three freeze-thaw cycles (−20°C to 25°C).

[3] = osteoporosis rats (ovariectomized)
[4] = osteoporotic rats with kidney-yang-deficiency
[5] = osteoporotic rats with kidney-yin-deficiency
[6] = high QC (800, 16000, 3200, 400, 40 ng/mL in the same order)
[7] = low QC (2, 40, 8, 1, 0.1 ng/mL for chlorogenic acid, loganin, morroniside, aucubin, protocatechuic aldehyde)
[8] = middle QC (40, 800, 160, 20, 2 ng/mL in the same order)

Cmax ([1]; normal rats): 84.4 ± 32.2 ng/mL
Tmax ([1]; normal rats): 0.38 ± 0.14 h
half-life ([1]; normal rats): 5.97 ± 2.89 h
CL/F ([1]; normal rats): 22.6 mL/min/kg
MRT last ([1]; normal rats): 5.38 ± 2.01 h
MRT inf ([1]; normal rats): 8.58 ± 2.71 h
Cmax [1, 3]: 103 ± 23.6 ng/mL
Tmax [1, 3]: 0.17 h
half-life [1, 3]: 3.67 ± 0.78 h
CL/F [1, 3]: 26.5 mL/min/kg
MRT last [1, 3]: 3.06 ± 0.12 h
MRT inf [1, 3]: 5.62 ± 1.09 h
Cmax [1, 4]: 96 ± 24.2 ng/mL
Tmax [1, 4]: 0.25 h
half-life [1, 4]: 7.4 ± 1.68 h
CL/F [1, 4]: 38.8 mL/min/kg
MRT last [1, 4]: 2.95 ± 0.38 h
MRT inf [1, 4]: 11.7 ± 1.31 h
Cmax [1, 5]: 181 ± 30.7 ng/mL
Tmax [1, 5]: 0.25 h
half-life [1, 5]: 8.68 ± 2.92 h
CL/F [1, 5]: 16 mL/min/kg
MRT last [1, 5]: 7.32 ± 1.92 h
MRT inf [1, 5]: 14.1 ± 5.85 h
AUC0–t ([1]; normal rats): 170.50 ± 64.82 h∗ng/mL
AUC0–∞ ([1]; normal rats): 204.69 ± 68.61 h∗ng/mL
AUC0–t [1, 3]: 116.40 ± 11.00 h∗ng/mL
AUC0–∞ [1, 3]: 155.64 ± 24.54 h∗ng/mL
AUC0–t [1, 4]: 48.33 ± 14.05^∗∗ h∗ng/mL
AUC0–∞ [1, 4]: 111.33 ± 29.94 h∗ng/mL
AUC0–t [1, 5]: 201.40 ± 32.43^∗∗ h∗ng/mL
AUC0–∞ [1, 5]: 272.67 ± 70.63^∗∗ h∗ng/mL
Stability, Room temperature for 4 h, Mean [2, 6]: 92.8%
Stability, Room temperature for 4 h, Mean [2, 7]: 89.8%
Stability, Room temperature for 4 h, Mean [2, 8]: 91.3%
Stability, Autosampler at 4°C for 24 h, Mean [2, 6]: 90.2%
Stability, Autosampler at 4°C for 24 h, Mean [2, 7]: 88.6%
Stability, Autosampler at 4°C for 24 h, Mean [2, 8]: 92.5%
Stability, Three freeze-thaw cycles, Mean [2, 6]: 89.1%
Stability, Three freeze-thaw cycles, Mean [2, 7]: 84.2%
Stability, Three freeze-thaw cycles, Mean [2, 8]: 86.9%
Compound: OCC1=C[C@@H](O)[C@@H]2C=CO[C@@H](O[C@@H]3O[C@H](CO)[C@@H](O)[C@H](O)[C@H]3O)[C@H]12 [Aucubin, aucubin]

Cmax ([1]; normal rats): 346 ± 64 ng/mL
CL/F ([1]; normal rats): 15.2 mL/min/kg
MRT last ([1]; normal rats): 5.46 ± 0.48 h
MRT inf ([1]; normal rats): 8.17 ± 1.46 h
Cmax [1, 3]: 279 ± 56.3 ng/mL
Tmax [1, 3]: 0.26 ± 0.02 h
half-life [1, 3]: 6.38 ± 1.96 h
CL/F [1, 3]: 17.3 mL/min/kg
MRT last [1, 3]: 6.78 ± 0.68 h
MRT inf [1, 3]: 9.72 ± 2.61 h
Cmax [1, 4]: 430 ± 98.5 ng/mL
CL/F [1, 4]: 29.5 mL/min/kg
MRT last [1, 4]: 4.52 ± 1.46 h
MRT inf [1, 4]: 6.56 ± 2.64 h
Cmax [1, 5]: 354 ± 83.8 ng/mL
half-life [1, 5]: 6.61 ± 3.84 h
CL/F [1, 5]: 37.1 mL/min/kg
MRT last [1, 5]: 3.03 ± 0.38 h
MRT inf [1, 5]: 4.1 ± 1.02 h
AUC0–t ([1]; normal rats): 497.98 ± 34.72^∗ h∗ng/mL
AUC0–∞ ([1]; normal rats): 546.26 ± 38.80 h∗ng/mL
t 1/2 ([1]; normal rats): 8.17 ± 1.79 h
AUC0–t [1, 3]: 435.76 ± 59.78 h∗ng/mL
AUC0–∞ [1, 3]: 489.67 ± 77.69 h∗ng/mL
AUC0–t [1, 4]: 263.13 ± 40.25^∗∗ h∗ng/mL
AUC0–∞ [1, 4]: 284.31 ± 33.34^∗∗ h∗ng/mL
t 1/2 [1, 4]: 5.41 ± 1.84 h
AUC0–t [1, 5]: 218.55 ± 23.29^∗∗ h∗ng/mL
AUC0–∞ [1, 5]: 225.89 ± 25.03^∗∗ h∗ng/mL
Stability, Room temperature for 4 h, Mean [2, 6]: 85.7%
Stability, Room temperature for 4 h, Mean [2, 8]: 85.9%
Stability, Autosampler at 4°C for 24 h, Mean [2, 6]: 87.3%
Stability, Autosampler at 4°C for 24 h, Mean [2, 8]: 93.7%
Stability, Three freeze-thaw cycles, Mean [2, 6]: 80.9%
Stability, Three freeze-thaw cycles, Mean [2, 8]: 89.3%
Compound: O=C(/C=C/c1ccc(O)c(O)c1)O[C@@H]1C[C@](O)(C(=O)O)C[C@@H](O)[C@H]1O [Chlorogenic acid, chlorogenic acid]

Cmax ([1]; normal rats): 13500 ± 2030 ng/mL
Tmax ([1]; normal rats): 0.25 h
half-life ([1]; normal rats): 4.51 ± 0.45 h
CL/F ([1]; normal rats): 6.03 mL/min/kg
MRT last ([1]; normal rats): 4.58 ± 0.47 h
MRT inf ([1]; normal rats): 5.1 ± 0.41 h
Cmax [1, 3]: 8380 ± 1120 ng/mL
Tmax [1, 3]: 0.25 h
half-life [1, 3]: 2.74 ± 0.96 h
CL/F [1, 3]: 7.67 mL/min/kg
MRT last [1, 3]: 4.91 ± 1.29 h
MRT inf [1, 3]: 5.02 ± 1.34 h
Cmax [1, 4]: 14.7 ± 1.38 ng/mL
Tmax [1, 4]: 0.21 ± 0.05 h
half-life [1, 4]: 5.62 ± 1.63 h
CL/F [1, 4]: 4280 mL/min/kg
MRT last [1, 4]: 5.5 ± 0.67 h
MRT inf [1, 4]: 6.62 ± 0.49 h
Cmax [1, 5]: 16000 ± 2790 ng/mL
Tmax [1, 5]: 0.25 h
half-life [1, 5]: 3.75 ± 0.7 h
CL/F [1, 5]: 2.94 mL/min/kg
MRT last [1, 5]: 6.51 ± 0.91 h
MRT inf [1, 5]: 6.92 ± 0.98 h
AUC0–t ([1]; normal rats): 20134.29 ± 3958.79 h∗ng/mL
AUC0–∞ ([1]; normal rats): 20523.97 ± 3947.05 h∗ng/mL
AUC0–t [1, 3]: 17912.12 ± 6898.16 h∗ng/mL
AUC0–∞ [1, 3]: 17998.56 ± 6945.75 h∗ng/mL
AUC0–t [1, 5]: 41028.61 ± 6356.26^∗∗ h∗ng/mL
AUC0–∞ [1, 5]: 41727.10 ± 6203.34^∗∗ h∗ng/mL
Stability, Room temperature for 4 h, Mean [2, 6]: 85.6%
Stability, Room temperature for 4 h, Mean [2, 7]: 88.3%
Stability, Room temperature for 4 h, Mean [2, 8]: 87.4%
Stability, Autosampler at 4°C for 24 h, Mean [2, 6]: 84.4%
Stability, Autosampler at 4°C for 24 h, Mean [2, 7]: 94.6%
Stability, Autosampler at 4°C for 24 h, Mean [2, 8]: 85.8%
Stability, Three freeze-thaw cycles, Mean [2, 6]: 92.4%
Stability, Three freeze-thaw cycles, Mean [2, 7]: 86.4%
Stability, Three freeze-thaw cycles, Mean [2, 8]: 89.5%
Compound: COC(=O)C1=CO[C@@H](O[C@@H]2O[C@H](CO)[C@@H](O)[C@H](O)[C@H]2O)[C@@H]2[C@@H](C)[C@@H](O)C[C@H]12 [Loganin, loganin]
